Reference: US4014876A, “Isoxazole derivatives” (Shionogi & Co., Ltd., priority 1969, dated 1977)

Experiments:
in vivo = details: mouse, oral, mice, 24 hours observation
Excerpt: For each dose 10 male mice were used, their body-weights ranging from 19 to 21 grams. […] The LD50 means the amount of the test compound being expected to kill just half the number of the animals treated.

Blood Free-Fatty-Acid = Blood Free-Fatty-Acid (B.F.F.A.) lowering activity in fasted rats (oral); assay type: in vivo, rat (male); details: 100 mg/kg p.o.; for B.F.F.A. Level, 1 hr after / B.F.F.A. Level, 3 hr after / B.F.F.A. Level, 5 hr after: fasted rats; for B.F.F.A. Level, Total: total of 1, 3 and 5 hr values
Method: Several groups of male rats weighing 200 to 250 g, each group consisting of 5 rats, were used in the test. Assay and control groups were fasted during 24 hours and then orally given 5 % gum arabic suspension with and without the test compound (100 mg/kg p.o.), respectively. All animals tested were decapitated 1 hour after, 3 hours after, or 5 hours after the treatment, and blood samples were drawn for B.F.F.A. value determination. A percentage factor, as B.F.F.A. Level, was determined according to the Itaya-Ui method [K. Itaya, et al.: J. Lipid Research, Vol. 6, 18 (1965)], calculated by the following equation: [formula] b) Result
B.F.F.A. Levels are shown in Table II, together with + and - marks and the total of the three values for each compound.

blood-sugar = assay: Hypoglycemic activity in alloxan-treated rats (Blood-Sugar-Level, oral); assay type: in vivo, rat (alloxan-treated adult male); details: for Percentage of Blood-Sugar-Level (B.S.L.), 1 hr after / Percentage of Blood-Sugar-Level (B.S.L.), 3 hr after / Percentage of Blood-Sugar-Level (B.S.L.), 5 hr after: alloxan rats, change vs control; for Percentage of Blood-Sugar-Level (B.S.L.), Total: total of 1, 3 and 5 hr percentages
Method: Assay and control groups of rats were used, each group consisting of 5 adult male rats weighing 200 to 250 g and showing about 250 to 350 mg/dl-blood as the initial blood-sugar value, after being treated once with 50 mg/kg of alloxan (i.v.) one week before the assay. The assay and control groups were orally administered a 5 % gum arabic suspension with and without the test compound, respectively. Measurement of the absolute blood-sugar value was carried out thrice (i.e. 1 hour after, 3 hours after, and 5 hours after administration) and the values were compared with those of the control group. Blood-sugar values were determined by an assay technique using the marketed enzymatic glucose reagent: Glucostat (Trade Mark of Worthington Biochemical Corporation, Freehold, N.J., U.S.A.).
In effect, the marks + and -correspond to increasing and decreasing
tendency of B.S.L., respectively, after eliminating the difference in
value between the assay and control groups.

SMILES | LD50 at 24 h (in vivo) | B.F.F.A. Level, 1 hr after (Blood Free-Fatty-Acid) | B.F.F.A. Level, 3 hr after (Blood Free-Fatty-Acid) | B.F.F.A. Level, 5 hr after (Blood Free-Fatty-Acid) | B.F.F.A. Level, Total (Blood Free-Fatty-Acid) | Percentage of Blood-Sugar-Level (B.S.L.), 1 hr after (blood-sugar; 10 mg/kg dose) | Percentage of Blood-Sugar-Level (B.S.L.), 3 hr after (blood-sugar; 10 mg/kg dose) | Percentage of Blood-Sugar-Level (B.S.L.), 5 hr after (blood-sugar; 10 mg/kg dose) | Percentage of Blood-Sugar-Level (B.S.L.), Total (blood-sugar; 10 mg/kg dose) | Percentage of Blood-Sugar-Level (B.S.L.), 1 hr after (blood-sugar; 100 mg/kg dose) | Percentage of Blood-Sugar-Level (B.S.L.), 3 hr after (blood-sugar; 100 mg/kg dose) | Percentage of Blood-Sugar-Level (B.S.L.), 5 hr after (blood-sugar; 100 mg/kg dose) | Percentage of Blood-Sugar-Level (B.S.L.), Total (blood-sugar; 100 mg/kg dose)
Cc1cc(C(=O)NC(=O)NC(C)C)no1 [N'-i-propyl-N-(5-methyl-3-isoxazolylcarbonyl)urea] | 7000 to 8000 mg/kg | -75% | -67% | -49% | -191% |  |  |  |  |  |  |  | 
CCCCNC(=O)NC(=O)c1cc(C)on1 [N'-n-butyl-N-(5-methyl-3-isoxazolylcarbonyl)urea] |  | -59% | -59% | -30% | -129% |  |  |  |  |  |  |  | 
Cc1cc(C(=O)NC(N)=S)no1 [N-(5-methyl-3-isoxazolylcarbonyl)thiourea] |  | -60% | -36% | +13% | -83% |  |  |  |  |  |  |  | 
CNC(=O)N(C)C(=O)c1cc(C)on1 [Compound 4, N,N'-dimethyl-N-(5-methyl-3-isoxazolylcarbonyl)urea] |  |  |  |  |  | -15% | -36% | -20% | -71% | -22% | -51% | -59% | -132%
Cc1cc(C(=O)NC(=O)N(C)C)no1 [Compound 2, N',N'-dimethyl-N-(5-methyl-3-isoxazolylcarbonyl)urea] |  |  |  |  |  | -45% | -59% | -29% |  | -33% | -59% | -59% | -151%
Cc1cc(C(=O)NC(N)=O)no1 [N-(5-methyl-3-isoxazolylcarbonyl)urea] | > 10000 mg/kg |  |  |  |  |  |  |  |  |  |  |  | 
CCCCNC(=O)NS(=O)(=O)c1ccc(C)cc1 [Compound 6, Tolbutamide, reference compound] |  | -40% | -45% | 0% | -85% |  |  |  |  | -9% | -26% | -23% | -58%
Cc1cc(C(=O)NC(=O)NC2CCCCC2)no1 [N'-cyclohexyl-N-(5-methyl-3-isoxazolylcarbonyl)urea] |  | -27% | -34% | -23% | -84% |  |  |  |  |  |  |  | 
Cc1cc(C(=O)N(C)C(=O)N(C)C)no1 [Compound 5, N,N',N'-trimethyl-N-(5-methyl-3-isoxazolylcarbonyl)urea] |  |  |  |  |  | -19% | -39% | -39% | -97% | -24% | -40% | -40% | -104%
CCc1cc(C(=O)NC(=O)NC(C)C)no1 [Compound 1, N'-i-propyl-N-(5-ethyl-3-isoxazolylcarbonyl)urea] |  |  |  |  |  | -8% | +2% | +2% | -4% | -54% | -63% | -43% | -160%
Cc1cc(C(=O)NC(=N)N)no1 [Compound 3, 1-(5-methyl-3-isoxazolylcarbonyl)guanidine] | 2000 to 3000 mg/kg | -70% | -15% | -8% | -93% | -11% | -39% | -32% | -82% | -30% | -56% | -52% | -138%
